“And” between values parts separate entries of the source, which are not always exact repeats. Equal values may be shown once. Where a name gives a salt, the structure may show the parent alone.
Columns and labels:
Format in all cases: in vivo
[1] = tested on: bleomycin-induced lung fibrosis; assay: Bleomycin-induced lung fibrosis mouse model: histological examination, scoring for lung fibrosis; parameters: key to Histological fibrosis score / Histological fibrosis score, Mean: 0 = normal lung, 8 = total fibrous obliteration of fields
Source text: (§1) Bleomycin-induced Lung Fibrosis Mouse Model
(§2) Pulmonary fibrosis is a common response to various insults to the lung and is the end-point of a numerous and heterogenous group of disorders known as interstitial lung disease (ILD), characterized by chronic inflammation and progressive fibrosis of the pulmonary interstitium. […] instillation of the anti-tumour agent bleomycin (BLM) is the most commonly used animal model for pulmonary fibrosis.
(§3) Thirty male CD-1 mice weighing 27.5±0.4 g were used in this study (obtained from Harlan Nossan, Milan, Italy), and were allowed access to food and water ad libitum. The mice were kept in laminar flow rooms at constant temperature and humidity with 3 animals in each cage. The temperature of the room was controlled between 20-26° C. and the humidity of the room was controlled between 40-70%.
(§4) Mice received a single intra-tracheal instillation of saline (0.9%), or saline containing bleomycin sulfate (BLM, 0.1 IU per mouse) in a volume of 100 μl. Mice were then sacrificed after 7 days by pentobarbitone overdose.
(§5) Animals were randomized into three experimental groups of 10 animals in each group, and were treated with either hydroxypropyl methyl cellulose (HPMC) (0.5%)/HPbetaCyclodextrin (20%) as a 5 ml/kg s.c. injection 30 min after intra-tracheal instillation of BLM and every 12 h thereafter until completion of the study, or with the compound I-4×HCl (4-[(4-Methoxyphenyl)amino]-6-(methylcarbamoyl)quinoline-3-carboxylic acid hydrochloride) at 30 mg/kg as a s.c. injection 30 min after intra-tracheal instillation of BLM and every 12 h thereafter until completion of the study.
Lung biopsies were taken 7 days after BLM injection. After fixation at room temperature in buffered formaldehyde solution (10% in phosphate buffered saline [PBS]), the sections were prepared and stained by haematoxylin-eosin and observed with an Axiovision Zeiss microscope (Milan, Italy).
Scoring for lung fibrosis was graded on a scale from 0 to 8 by examining randomly chosen sections, with 5 fields per sample at a magnification of ×100. Criteria for grading lung fibrosis were as follows: grade 0, normal lung; grade 1, minimal fibrous thickening of alveolar or bronchiolar walls; grade 3, moderate thickening of walls without obvious damage to lung architecture; grade 5, increased fibrosis with definite damage to lung structure and formation of fibrous bands or small fibrous masses; grade 7, severe distortion of structure and large fibrous areas; and grade 8, total fibrous obliteration of fields (Cuzzocrea S, et al. Am J Physiol Lung Cell Mol Physiol. (2007) 292:L1095-104).
All data in the text are presented as mean±s.e. mean of n observations, where n represents the number of animals studied. All statistical analysis was calculated using GraphPad Prism 5 (GraphPad Software, San Diego, Calif., USA). Data without repeated measurements were assessed by a Mann-Whitney U t-test. Data with repeated measurements were assessed by a two-way ANOVA followed by a Bonferroni post-hoc test. A P-value of less than 0.05 was considered to be statistically significant.

lung oedema = assay: Bleomycin-induced lung fibrosis mouse model: measurement of lung oedema
Method: as §1, §3
(§6) Mice received a single intra-tracheal instillation of saline (0.9%), or saline containing bleomycin sulfate (BLM, 0.1 IU per mouse) in a volume of 100 μl. Mice were then sacrificed after 7 days by pentobarbitone overdose. […]
The wet lung weight was measured 7 days after BLM injection by careful excision of the lung from other adjacent extraneous tissues. The lung was then exposed for 48 h to 180° C. and the dry weight measured. Water content was then calculated by subtracting the dry weight from the wet weight.

Myeloperoxidase (MPO) = assay: Bleomycin-induced lung fibrosis mouse model: myeloperoxidase (MPO) assay in lung; conditions: percentage of the level in the BLM+Vehicle group (100%); 30 mg/kg s.c. every 12 h; 7 days after BLM
Method: as §1, §3, §6
Myeloperoxidase (MPO) activity was determined 7 days after BLM injection. […] The rate of change in absorbance was measured spectrophotometrically at 650 nm. MPO activity was defined as the quantity of enzyme degrading 1 μmol of peroxide per min at 37° C. and was expressed in units per gram weight of wet tissue.

[2] = tested on: Thiobarbituric acid-reactant substances (TBARS); assay: Bleomycin-induced lung fibrosis mouse model: thiobarbituric acid-reactant substances in lung; conditions: percentage of the level in the BLM+Vehicle group (100%); 30 mg/kg s.c. every 12 h; 7 days after BLM
Method: as §1, §3, §6
Thiobarbituric acid-reactant substances (TBARS) measurement, which is considered a good indicator of lipid peroxidation, was determined in the lung tissues collected at 7 days after BLM administration. […] The absorbance of the supernatant was measured spectrophotometrically at […]. Levels of TBARS are expressed as μM/100 mg of wet tissue.

TNF-α = assay: Bleomycin-induced lung fibrosis mouse model: measurement of cytokines, TNF-α; conditions: percentage of the level in the BLM+Vehicle group (100%); 30 mg/kg s.c. every 12 h; 7 days after BLM
Method: as §1, §3, §4, §5
(§7) TNF-α and IL-1β levels were evaluated from lung tissues collected at 7 days after BLM administration. […]

IL-1β = assay: Bleomycin-induced lung fibrosis mouse model: measurement of cytokines, IL-1β; conditions: percentage of the level in the BLM+Vehicle group (100%); 30 mg/kg s.c. every 12 h; 7 days after BLM
Method: as §1, §3, §4, §5, §7

iNOS = assay: Bleomycin-induced lung fibrosis mouse model: immunohistochemical localization of iNOS
Method: as §1, §3, §6
(§8) At 7 days after BLM administration, lung tissues were fixed in 10% PBS-buffered formaldehyde and 7 μm sections were prepared from paraffin-embedded tissues. […] Specific labeling was detected with a biotin-conjugated goat anti-rabbit IgG and avidin-biotin peroxidase complex (DBA). […]

COX-2 = assay: Bleomycin-induced lung fibrosis mouse model: immunohistochemical localization of COX-2
Method: as §1, §3, §6, §8

Nitrotyrosine = assay: Bleomycin-induced lung fibrosis mouse model: immunohistochemical localization of nitrotyrosine
Method: as §1, §3, §6, §8

TGF-β = assay: Bleomycin-induced lung fibrosis mouse model: immunohistochemical localization of TGF-β
Method: as §1, §3, §6, §8

Poly-ADP-ribose (PAR) = assay: Bleomycin-induced lung fibrosis mouse model: immunohistochemical localization of PAR
Method: as §1, §3, §6, §8

[3] = Bleomycin-induced lung fibrosis mouse model: observations, body weight; conditions: 30 mg/kg 30 min after intra-tracheal BLM and every 12 h thereafter
Method: as §1, §3, §6
At the time of routine monitoring, the animals were checked for any effects of acute lung injury and treatments on normal behavior such as mobility, food and water consumption (by looking only), body weight gain/loss (body weights were measured daily), eye/hair matting and any other abnormal effect. Death and observed clinical signs were recorded on the basis of the numbers of animals within each subset.

[4] = tested on: bleomycin-induced lung fibrosis; assay: Bleomycin-induced lung fibrosis mouse model: overall outcome
Source text: as §1, §2, §3, §4, §5
The levels of various fibrotic markers were measured in the three groups (A, B and C). For each marker, the level measured in the bleomycin-injured, vehicle-treated group (BLM+Vehicle) was taken as 100%. In Table 3, the corresponding marker levels for the “sham injured” group treated with vehicle (Sham+Vehicle), and the bleomycin-injured group treated with compound I-4 (BLM+I-4×HCl), are indicated as a percentage of the level in the BLM+Vehicle group.

[5] = 30 mg/kg 30 min after intra-tracheal BLM and every 12 h thereafter
[6] = percentage of the level in the BLM+Vehicle group (100%), 30 mg/kg s.c. every 12 h, 7 days after BLM
[7] = BLM-injured mice treated with compound, compared with sham group

Q: Which “acute lung injury (in words)” value [1, 5] does the source give for `CNC(=O)c1ccc2ncc(C(=O)O)c(Nc3ccc(OC)cc3)c2c1` [I-4 × HCl, 4-[(4-Methoxyphenyl)amino]-6-(methylcarbamoyl)quinoline-3-carboxylic acid hydrochloride] here?
A: The value was “significant attenuation”.

Q: What about the “histological scoring of fibrosis (in words)” value [1, 5] of the same compound?
A: Its value is “significant attenuation”.

Q: What about the “Histological fibrosis score, Mean” value ([1]; group mean of 10 mice, BLM-injured CD-1 mice, 30 mg/kg s.c. 30 min after BLM and every 12 h, 7 days after BLM, scale from 0 to 8) of the same compound?
A: The value was 2.40.

Q: What about the Histological fibrosis score ([1]; individual mice 1-10, BLM-injured CD-1 mice, 30 mg/kg s.c. 30 min after BLM and every 12 h, 7 days after BLM, scale from 0 to 8, hydrochloride, 30 mg/kg) of the same compound?
A: The Histological fibrosis score was 2.0 (4×) and 3.0 (5×) and 1.0.

Q: And the “Histological score for lung acute injury” value [1, 6]?
A: The value was 33%.

Q: And the “lung oedema (in words)” value (lung oedema; [5])?
A: Its value is “significant attenuation”.

Q: What about the “Wet/dry weight ratio (oedema)” value (lung oedema; [6]) of the same compound?
A: Its value is 52%.

Q: What about the “Lung myeloperoxidase (MPO)” value (Myeloperoxidase (MPO)) of the same compound?
A: Its value is 47%.

Q: What about the “Lung TBARS levels” value [2] of the same compound?
A: The value was 45%.

Q: And the “Lung TNF-α levels” value (TNF-α)?
A: Its value is 45%.

Q: What about the “Lung IL-1β levels” value (IL-1β) of the same compound?
A: Its value is 50%.

Q: And the “iNOS (immunohistochemical localization)” value (iNOS; [6])?
A: Its value is 0.1%.

Q: And the “COX-2 (immunohistochemical localization)” value (COX-2; [6])?
A: The value was 0.1%.

Q: What about the “Nitrotyrosine (immunohistochemical localization)” value (Nitrotyrosine; [6]) of the same compound?
A: The value was 0.1%.

Q: And the “TGF-β (immunohistochemical localization)” value (TGF-β; [6])?
A: The value was 0.1%.

Q: What about the “Poly-ADP-ribose (PAR) (immunohistochemical localization)” value (Poly-ADP-ribose (PAR); [6]) of the same compound?
A: The value was 0.1%.

Q: What about the “weight loss (in words)” value [3] of the same compound?
A: The value was “significant attenuation”.

Q: What about the “lung inflammation (in words)” value [4, 5] of the same compound?
A: The value was “significant attenuation”.

Q: What does the source list for `CNC(=O)c1ccc2ncc(C(=O)O)c(Nc3ccc(OC)cc3)c2c1` [Compound I-4, 4-[(4-Methoxyphenyl)amino]-6-(methylcarbamoyl)quinoline-3-carboxylic acid]?
A: iNOS level versus sham group (in words) (iNOS; [7]): reduced to levels similar to those of the sham group; COX-2 level versus sham group (in words) (COX-2; [7]): reduced to levels similar to those of the sham group; Nitrotyrosine level versus sham group (in words) (Nitrotyrosine; [7]): reduced to levels similar to those of the sham group; TGF-β level versus sham group (in words) (TGF-β; [7]): reduced to levels similar to those of the sham group; poly-ADP-ribose (PAR) level versus sham group (in words) (Poly-ADP-ribose (PAR); [7]): reduced to levels similar to those of the sham group; levels of the markers induced by bleomycin (in words) ([4]; all markers of Table 3, versus BLM+Vehicle): statistically significantly reduced; overall effect in the bleomycin model (in words) ([4]; conclusion from Tables 2 and 3): potent anti-fibrotic and ant-inflammatory effect

— US9376393B2, “Quinoline compounds which are anti-angiogenic integrin alpha5 beta1 inhibitors for use in the treatment of fibrosis or fibrosis-related diseases” (Clanotech AB, priority 2012, dated 2016)
